What was measured:
[1] = Thioether stapling in folded myoglobin: Cys thiol SN2 on the chloroacetamide of genetically encoded p-chloroacetamido-Phe (pCaaF), loss of HCl; spontaneous during E. coli expression (27 °C overnight) and purification, then overnight incubation at pH ~8.5; details: the molecule shown is the open-chain precursor, aqueous (E. coli cytosol, then KPi buffer adjusted to pH ~8.5), other, scale: % stapled
[2] = Thioether stapling in folded myoglobin: Cys thiol SN2 on the bromoethyl ether of genetically encoded O-2-bromoethyl tyrosine (O2beY), loss of HBr; details: the molecule shown is the open-chain precursor, aqueous (E. coli expression), other, scale: 1 = efficient/successful stapling, 0.5 = partial, 0 = failed, cited from earlier work

“sperm whale Mb(H64V,V68A) + D20S, G23C, D27A, R118pCaaF” showed a ring closure, conversion by HPLC ([1]; 296-membered ring) of 100.

“sperm whale Mb(H64V,V68A) + D27pCaaF, H113C, V114G” showed a ring closure, conversion by HPLC ([1]; 269-membered ring) of 100.

For “sperm whale Mb(H64V,V68A) + G5O2beY, D126C”, the ring closure, product found ([2]; 374-membered ring) is given as 1.

Substance “sperm whale Mb(H64V,V68A) + G5pCaaF, D126C” has a ring closure, conversion by HPLC ([1]; 374-membered ring) of 100.

In the case of “sperm whale Mb(H64V,V68A) + G5pCaaF, H36pCaaF, E109C, D126C”, the ring closure, conversion by HPLC [1] is reported as 100.

With “sperm whale Mb(H64V,V68A) + G5pCaaF, H36pCaaF, E109C, H113E, D126C” the ring closure, conversion by HPLC [1] was 100.

For “sperm whale Mb(H64V,V68A) + H36O2beY, E109C”, the ring closure, product found ([2]; 230-membered ring) is given as 1.

Substance “sperm whale Mb(H64V,V68A) + H36pCaaF, E109C” has a ring closure, conversion by HPLC ([1]; 230-membered ring) of 78.

In the case of “sperm whale Mb(H64V,V68A) + K16C, H119A, G121O2beY, D122S”, the ring closure, product found ([2]; 326-membered ring) is listed as 0.

For “sperm whale Mb(H64V,V68A) + K16C, H119A, G121pCaaF, D122S”, the ring closure, conversion by HPLC ([1]; 326-membered ring) was 60.

In the case of “sperm whale Mb(H64V,V68A) + L9R, H12C, D122T, A127O2beY”, the ring closure, product found ([2]; 356-membered ring) is listed as 1.

“sperm whale Mb(H64V,V68A) + L9R, H12C, D122T, A127pCaaF” gave a ring closure, conversion by HPLC ([1]; 356-membered ring) of 100.

For “sperm whale Mb(H64V,V68A) + R31O2beY, S35K, E109C”, the ring closure, product found ([2]; 245-membered ring) is listed as 0.

For “sperm whale Mb(H64V,V68A) + R31pCaaF, S35K, E109C”, the ring closure, conversion by HPLC ([1]; 245-membered ring) was 100.

— paper PMC9178789
